Among the data in paper PMC8468024, “PTP1B Inhibitory Secondary Metabolites from an Antarctic Fungal Strain Acremonium sp. SF-7394” (Molecules, 2021) are IC50 values, retold here.

This experiment deals with T1, protein tyrosine phosphatase 1B (PTP1B) (Homo sapiens, UniProt P18031).
T1 construct: gene PTPN1
T1 sequence (P18031 1-435): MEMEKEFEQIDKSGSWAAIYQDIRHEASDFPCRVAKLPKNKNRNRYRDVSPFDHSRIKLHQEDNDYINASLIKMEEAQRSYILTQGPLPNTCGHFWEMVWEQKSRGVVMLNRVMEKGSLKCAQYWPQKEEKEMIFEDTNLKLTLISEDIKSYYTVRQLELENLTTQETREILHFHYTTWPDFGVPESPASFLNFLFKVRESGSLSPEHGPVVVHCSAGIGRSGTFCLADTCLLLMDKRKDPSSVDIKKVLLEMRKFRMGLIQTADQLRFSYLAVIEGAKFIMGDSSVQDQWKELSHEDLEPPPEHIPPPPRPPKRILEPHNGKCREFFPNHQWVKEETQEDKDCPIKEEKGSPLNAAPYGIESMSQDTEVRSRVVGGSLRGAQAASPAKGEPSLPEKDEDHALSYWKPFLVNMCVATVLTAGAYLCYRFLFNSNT
The experiment is described as follows: p-NPP hydrolysis assay with recombinant enzyme; Lineweaver–Burk kinetics. Type of experiment: biochemical.

For the compound `CC(C)C[C@@H]1C[C@H](C)[C@@H]2CC[C@H](C)c3ccc(CO)c1c32` [compound 1, acrepseudoterin], the concentration for half-maximal inhibition (IC50) (usually the midpoint of a concentration-inhibition curve) turned out to be 22.8 ± 1.1 µM.
